This note sets out measurements from PubChem BioAssay AID328 (DTP/NCI, 2004).

Values joined by “and” are separate entries in the source; they are usually repeats but may differ in a detail not shown here. Equal entries are not always repeated. Inconclusive results and toxic doses are left out.

The test has as its system BDF1 mice, P388 leukemia ip, median survival T/C. Description: NCI In Vivo Anticancer Drug Screen. Data for tumor model P388 Leukemia (intraperitoneal) in B6D2F1 (BDF1) mice. The note with it: endpoint: median survival time, higher = longer survival. Summed up: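 Survival ratio, drug arm over vehicle arm, in mice with a transplanted tumour.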
The mark [1] stands for this setting: dose: 25.0 mg/kg/injection, schedule: Q01DX009 (ip), vehicle: saline with Tween-80.
Setting [2] is: dose: 25.0 mg/kg/injection, schedule: Q04DX003 (ip), vehicle: saline.
The mark [3] stands for this setting: dose: 50.0 mg/kg/injection, schedule: Q04DX003 (ip), vehicle: saline with Tween-80.
Where [4] appears, read: dose: 50.0 mg/kg/injection, schedule: Q04DX003 (ip), vehicle: saline.
Where [5] appears, read: dose: 100.0 mg/kg/injection, schedule: Q01DX009 (ip), vehicle: saline with Tween-80.
Setting [6] is: dose: 100.0 mg/kg/injection, schedule: Q04DX003 (ip), vehicle: other.
Where [7] appears, read: dose: 100.0 mg/kg/injection, schedule: Q04DX003 (ip), vehicle: saline with Tween-80.
Setting [8] is: dose: 100.0 mg/kg/injection, schedule: Q04DX003 (ip), vehicle: saline.
Where [9] appears, read: dose: 200.0 mg/kg/injection, schedule: Q04DX003 (ip), vehicle: saline with Tween-80.
The mark [10] stands for this setting: dose: 50.0 mg/kg/injection, schedule: Q01DX009 (ip), vehicle: saline with Tween-80.

As for `NC(CSC(c1ccccc1)(c1ccccc1)c1ccc(Br)cc1)C(=O)O` (configuration not stated), the T/C runs as follows: (dose: 5.0 mg/kg/injection, schedule: Q04DX003 (ip), vehicle: Klucel (hydroxypropylcellulose) (HPC)) 118 % of control; (dose: 6.25 mg/kg/injection, schedule: Q01DX009 (ip), vehicle: saline with Tween-80) 190 % of control; (dose: 12.5 mg/kg/injection, schedule: Q01DX009 (ip), vehicle: saline with Tween-80) 245 % of control; under setting [1], 270 % of control; under setting [2], 165 % of control; (dose: 30.0 mg/kg/injection, schedule: Q04DX003 (ip), vehicle: Klucel (hydroxypropylcellulose) (HPC)) 154 % of control. Moreover, the T/C by setting is: (dose: 45.0 mg/kg/injection, schedule: Q04DX003 (ip), vehicle: other) 166 % of control; under setting [3], 176 % of control; under setting [4], 204 % of control and 210 % of control; (dose: 65.0 mg/kg/injection, schedule: Q04DX003 (ip), vehicle: other) 183 % of control; under setting [5], 100 % of control; under setting [6], 170 % of control. Moreover, the T/C is 185 % of control under setting [7]; 230 % of control under setting [8]; 250 % of control (dose: 150.0 mg/kg/injection, schedule: Q04DX003 (ip), vehicle: other); 100 % of control under setting [9].

As to `CC1(C)Cc2cc3cc(Cl)ccc3nc2-c2ccccc21`, the T/C was 110 % of control (dose: 100.0 mg/kg/injection, schedule: Q01DX009 (ip), vehicle: saline); 110 % of control (dose: 100.0 mg/kg/injection, schedule: Q04DX003 (ip), vehicle: Klucel (hydroxypropylcellulose) (HPC)); 105 % of control (dose: 200.0 mg/kg/injection, schedule: Q01DX009 (ip), vehicle: saline); 115 % of control (dose: 200.0 mg/kg/injection, schedule: Q04DX003 (ip), vehicle: Klucel (hydroxypropylcellulose) (HPC)); 110 % of control (dose: 400.0 mg/kg/injection, schedule: Q01DX009 (ip), vehicle: saline); 110 % of control (dose: 400.0 mg/kg/injection, schedule: Q04DX003 (ip), vehicle: Klucel (hydroxypropylcellulose) (HPC)).

Regarding `NC(=O)c1ccc(Cl)c(Cl)c1`, the T/C was 116 % of control under setting [6] and 122 % of control (dose: 200.0 mg/kg/injection, schedule: Q04DX003 (ip), vehicle: other).

Regarding `c1ccc(N=NC2=NN(c3ccccc3)CS2)cc1`, the T/C reads like this: under setting [1], 116 % of control; under setting [10], 116 % of control.

Take `CCOC(=O)c1cccc(OP(=O)(N(C)C)N(C)C)c1`: the T/C by setting is: under setting [10], 108 % of control; under setting [5], 116 % of control.

With `CCCCCCCCCCCCCCCC(=O)OCCCCCCCCCC`, the T/C reads like this: (dose: 25.0 mg/kg/injection, schedule: Q04DX003 (ip), vehicle: saline with Tween-80) 100 % of control; under setting [3], 100 % of control; under setting [7], 100 % of control.

In the case of `CN(C)CC(=O)N/N=C\c1ccc([N+](=O)[O-])s1`, the T/C reads like this: under setting [2], 87 % of control; under setting [4], 87 % of control; under setting [8], 91 % of control.

For `CC(C)(O)/C=C/C(=O)C(C)(O)C1C(O)CC2(C)C3CC=C4C(CC(O)C(O)C4(C)C)C3(C)C(=O)CC12C` (configuration not stated), the T/C by setting is: (dose: 0.25 mg/kg/injection, schedule: Q01DX010 (ip), vehicle: carboxymethylcellulose (CMC)) 100 % of control; (dose: 0.5 mg/kg/injection, schedule: Q01DX010 (ip), vehicle: carboxymethylcellulose (CMC)) 105 % of control; (dose: 1.0 mg/kg/injection, schedule: Q01DX010 (ip), vehicle: carboxymethylcellulose (CMC)) 95 % of control; (dose: 2.0 mg/kg/injection, schedule: Q01DX010 (ip), vehicle: carboxymethylcellulose (CMC)) 110 % of control.

For the compound `COc1ccc2cc1Oc1ccc(cc1)C[C@H]1c3cc(c(OC)cc3CCN1C)Oc1c(OC)c(OC)cc3c1[C@H](C2)N(C)CC3`, the T/C was 105 % of control (dose: 12.5 mg/kg/injection, schedule: Q04DX003 (ip), vehicle: saline); 90 % of control under setting [2]; 110 % of control under setting [4]; 110 % of control under setting [8].

For `COC1(OC)C2(Cl)CC(c3ccc(Cl)cc3)C1(Cl)C(Cl)=C2Cl` (configuration not stated), the T/C was 100 % of control under setting [3], 95 % of control under setting [7] and 90 % of control under setting [9].

Consider `O=C(/C=C\c1ccnc2ccccc12)c1ccc([N+](=O)[O-])cc1`, for which the T/C runs as follows: (dose: 12.5 mg/kg/injection, schedule: Q04DX003 (ip), vehicle: water) 96 % of control; (dose: 25.0 mg/kg/injection, schedule: Q01DX009 (ip), vehicle: water) 114 % of control; (dose: 25.0 mg/kg/injection, schedule: Q04DX003 (ip), vehicle: water) 90 % of control; (dose: 50.0 mg/kg/injection, schedule: Q01DX009 (ip), vehicle: water) 117 % of control; (dose: 50.0 mg/kg/injection, schedule: Q04DX003 (ip), vehicle: water) 115 % of control; (dose: 100.0 mg/kg/injection, schedule: Q01DX009 (ip), vehicle: water) 95 % of control. The T/C was 106 % of control and 111 % of control (dose: 100.0 mg/kg/injection, schedule: Q04DX003 (ip), vehicle: water); 98 % of control (dose: 200.0 mg/kg/injection, schedule: Q01DX009 (ip), vehicle: water); 100 % of control (dose: 200.0 mg/kg/injection, schedule: Q04DX003 (ip), vehicle: water); 96 % of control (dose: 400.0 mg/kg/injection, schedule: Q01DX009 (ip), vehicle: water); 100 % of control (dose: 400.0 mg/kg/injection, schedule: Q04DX003 (ip), vehicle: water).

For the compound `COc1ccc(/C=C/c2ccc3ccccc3n2)c(OC)c1`, the T/C under setting [7] was 88 % of control and the T/C under setting [9] was 100 % of control.

With `COc1ccc(OC(=O)CCCl)cc1`, the T/C by setting is: under setting [7], 100 % of control; under setting [9], 100 % of control; (dose: 400.0 mg/kg/injection, schedule: Q04DX003 (ip), vehicle: saline with Tween-80) 113 % of control.

Consider `O=S(=O)(c1ccccc1)N1CN2CCN(C2)C1`, for which the T/C runs as follows: under setting [10], 107 % of control; under setting [5], 124 % of control.

Take `O=C(Nc1ccc(NC(=O)Nc2ccc(C3=NCCCN3)cc2)cc1)Nc1ccc(C2=NCCCN2)cc1`: the T/C was 122 % of control (dose: 8.3 mg/kg/injection, schedule: Q04DX003 (ip), vehicle: saline); 122 % of control (dose: 12.0 mg/kg/injection, schedule: Q04DX003 (ip), vehicle: saline); 165 % of control (dose: 19.0 mg/kg/injection, schedule: Q04DX003 (ip), vehicle: saline); 175 % of control (dose: 29.0 mg/kg/injection, schedule: Q04DX003 (ip), vehicle: saline); 154 % of control (dose: 65.0 mg/kg/injection, schedule: Q04DX003 (ip), vehicle: saline); 163 % of control (dose: 95.0 mg/kg/injection, schedule: Q04DX003 (ip), vehicle: saline).

`CCCCCCOB(OCCCCCC)OCCCCCC`: the T/C was 94 % of control (dose: 22.5 mg/kg/injection, schedule: Q01DX009 (ip), vehicle: saline with Tween-80); 97 % of control (dose: 45.0 mg/kg/injection, schedule: Q01DX009 (ip), vehicle: saline with Tween-80); 102 % of control (dose: 90.0 mg/kg/injection, schedule: Q01DX009 (ip), vehicle: saline with Tween-80).
